Measurements as given in US20050288316A1, “Beta-carbolines as growth hormone secretagogue receptor (GHSR) antagonists” (priority 2003, published 2005).

Legend:
human GHSR = molecular target: T1, human GHSR (Homo sapiens, UniProt Q92847); test: Functional FLIPR assay: inhibition of the ghrelin-evoked peak response in CHO cells stably expressing human GHSR (IC50, functional Ki); type: cell-based; details: functional Ki calculated from IC50 by Cheng-Prusoff equation, Fluo-4AM, ghrelin at EC70
T1 construct: host or cells: Chinese hamster ovary (CHO) cells
Experimental: Chinese hamster ovary cells (CHO), cell line (ES-410-F) purchased from Euroscreen, stably expressing the human GHSR seeded in 96 well plates are pre-loaded with Fluo-4AM fluorescent dye for 60 min before addition of test compounds (5 μM for primary screen). Fluorescent intensity is recorded using a Fluorometric imaging plate reader (FLIPR 98R 96-well format, Molecular Devices) and inhibition of the peak response evoked by ghrelin (EC70 concentration) is calculated.
Potency (IC50) determinations are performed utilizing the same functional assay as described for primary screening, applying the compounds in the concentration range of 170 pM to 10 μM or 340 pM to 20 μM.
The calculation of the functional Ki values for the inhibitors was performed by use of Activity Base. The Ki value is calculated from IC50 using the Cheng Prushoff equation (with reversible inhibition that follows the Michaelis-Menten equation): […] [Cheng, Y. C.; Prushoff, W. H. Biochem. Pharmacol. 1973, 22, 3099-3108]. […]

T1 sequence (Q92847 whole entry): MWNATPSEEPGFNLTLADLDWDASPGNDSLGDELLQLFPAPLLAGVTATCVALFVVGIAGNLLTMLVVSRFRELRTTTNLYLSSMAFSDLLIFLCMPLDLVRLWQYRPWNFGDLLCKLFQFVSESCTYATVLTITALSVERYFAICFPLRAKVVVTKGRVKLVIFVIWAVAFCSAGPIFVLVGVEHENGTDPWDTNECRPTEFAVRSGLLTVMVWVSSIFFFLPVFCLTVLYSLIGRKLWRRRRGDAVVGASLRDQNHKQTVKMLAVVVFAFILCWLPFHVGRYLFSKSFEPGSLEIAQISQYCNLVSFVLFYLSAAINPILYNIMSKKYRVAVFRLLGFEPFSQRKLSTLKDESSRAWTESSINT

SMILES	Ki (human GHSR)	melting point
Fc1ccc2c3c([nH]c2c1)C1(CCN(CCOc2ccccc2)C1)NCC3 (stereo not drawn) [Example 11, 7-Fluoro-1′-(2-phenoxyethyl)-2,3,4,9-tetrahydrospiro[beta-carboline-1,3′-pyrrolidine]]	572 nM	–
CCCCNC(=O)N1CCc2c([nH]c3ccc(OC)cc23)C12CCN(CCOc1ccccc1)C2 (stereo not drawn) [Example 30, N-Butyl-6-methoxy-1′-(2-phenoxyethyl)-4,9-dihydrospiro[beta-carboline-1,3′-pyrrolidine]-2(3H)-carboxamide]	59 nM	–
COc1ccc2[nH]c3c(c2c1)CCNC31CCNC1 (stereo not drawn) [Comparative Example 1, 6-Methoxy-2,3,4,9-tetrahydrospiro[beta-carboline-1,3′-pyrrolidine]]	–	> 180 °C
COc1ccc2[nH]c3c(c2c1)CCNC31CCN(CCOc2ccccc2)C1 (stereo not drawn) [Example 10, 6-Methoxy-1′-(2-phenoxyethyl)-2,3,4,9-tetrahydrospiro[beta-carboline-1,3′-pyrrolidine]]	60 nM	–
